Results reported in the Deep4Chem optical property database.
“And” between values parts separate entries of the source, which are not always exact repeats. Equal values may be shown once. Each block holds one molecule with its values, some of them ahead of it.

Test: solvent given as SMILES

emission maximum (in CCO): 425 nm | emission maximum (in ClCCl): 713 nm | emission maximum (in O): 716 nm
Structure (SMILES): CC[N+](CC)=c1ccc2c(C(F)(F)F)c3c(oc-2c1)-c1ccc(N(C)C)cc1CC3

emission maximum (in CC#N): 420 nm
Structure (SMILES): C=Cc1cc2ccc(OC(=O)c3ccccc3)cc2oc1=O

emission maximum (in ClC(Cl)Cl): 565 nm
Structure (SMILES): c1csc(-c2ccc(-c3cccs3)c3nsnc23)c1

emission maximum (in ClCCl): 635 nm
Structure (SMILES): CCCCN1C(=O)C2=C(c3ccc(-c4ccc5c(c4)C(C)(C)c4ccccc4-5)cc3)[N-]C(=O)C2=C1c1ccc(-c2ccc3c(c2)C(C)(C)c2ccccc2-3)cc1

emission maximum (in C1CCCCC1): 390 nm
Structure (SMILES): CCCCCCCCOc1ccc(C2=C(c3ccc(OCCCCCCCC)cc3)C(C)(C)c3ccccc32)cc1

emission maximum (in CO): 512 nm
Structure (SMILES): Cc1cc(C)c(B(c2ccsc2-c2sccc2P(=O)(c2ccccc2)c2ccccc2)c2c(C)cc(C)cc2C)c(C)c1

emission maximum (in C1CCOC1): 495 nm | emission maximum (in CC#N): 522 nm | emission maximum (in CCO): 504 nm | emission maximum (in CCOC(C)=O): 495 nm | emission maximum (in CN(C)C=O): 521 nm | emission maximum (in ClCCl): 513 nm | emission maximum (in c1ccccc1): 468 nm
Structure (SMILES): COc1ccc([C@@H]2C[C@](O)(c3ccccn3)C[C@](O)(c3ccccn3)[C@H]2C(=O)c2ccc(N(c3ccccc3)c3ccccc3)cc2)cc1

emission maximum (in C1CCOC1): 423 nm | emission maximum (in CCCCCC): 416 nm | emission maximum (in CCO): 429 nm | emission maximum (in CS(C)=O): 431 nm
Structure (SMILES): CCCCOc1ccc2cc(-c3ccc(C)cc3)c(=O)oc2c1

emission maximum (in CC#N): 418 nm | emission maximum (in CCCCCC): 403 nm | emission maximum (in CO): 430 nm | emission maximum (in CS(C)=O): 422 nm | emission maximum (in ClC(Cl)Cl): 410 nm
Structure (SMILES): CCN(CC)c1ccc(/C=N/Nc2ccc(C#N)cc2)c(O)c1

emission maximum (in ClC(Cl)Cl): 515 nm
Structure (SMILES): CN1CCc2cc(C3=Cc4cccc[n+]4[B-](F)(F)O3)ccc21

emission maximum (in CCO): 647 nm | emission maximum (in O): 647 nm
Structure (SMILES): CC/[NH+]=c1\cc2oc3cc(NCCN)c4ccccc4c3nc-2cc1C

emission maximum (in ClCCl): 407 nm
Structure (SMILES): FC(F)(F)c1ccc(B2c3ccccc3Nc3ccccc32)c(C(F)(F)F)c1

emission maximum (in ClC(Cl)Cl): 500 nm
Structure (SMILES): CCCCCCN1C(=O)c2cccc3cc(/N=C\c4cn(C)c5ccccc45)cc(c23)C1=O

emission maximum (in CC1CCCCC1): 488 nm | emission maximum (in CC#N): 490 nm
Structure (SMILES): C(=C\c1c2ccccc2cc2ccccc12)/c1ccc2ccccc2c1

emission maximum (in ClCCl): 584 nm
Structure (SMILES): F[B-]1(F)N(c2ccccc2)c2cccc3ccc4ccc[n+]1c4c23

emission maximum (in ClCCl): 379 nm
Structure (SMILES): c1ccc(N(c2ccccc2)c2ccc(-n3ccc4cc(-c5ccc(C6(c7ccccc7)c7ccccc7-c7ccccc76)cc5)ccc43)cc2)cc1

emission maximum (in ClCCl): 672 nm
Structure (SMILES): COc1c2ccccc2c(OC)c2c(C#Cc3ccccc3)c3cc4sccc4cc3c(C#Cc3ccccc3)c12

emission maximum (in C1CCCCC1): 521 nm
Structure (SMILES): c1ccc(-c2cc3cccc4cc(-c5ccccc5)c5cc(-c6cc7[b-]8c(c6)c(-c6ccccc6)cc6cccc(cc7-c7ccccc7)[n+]86)cc2[b-]5[n+]34)cc1

emission maximum (in ClCCl): 370 nm
Structure (SMILES): Cc1c(C)c2c3ccccc3[nH]c2c2ccccc12

emission maximum (in CC#N): 688 nm | emission maximum (in CS(C)=O): 703 nm | emission maximum (in ClC(Cl)Cl): 691 nm
Structure (SMILES): C#CCn1c2ccccc2c2cc(/C=C/C3=[N+]4C(=C(c5ccc(I)cc5)c5c(C)cc(/C=C/c6ccc7c(c6)c6ccccc6n7CC#C)n5[B-]4(F)F)C(C)=C3)ccc21

emission maximum (in CN(C)C=O): 671 nm
Structure (SMILES): c1ccc(CO[Si]23n4c5c6ccccc6c4/N=C4N=C(/N=c6/c7ccccc7c(n62)=c2c6ccccc6c(n23)=N5)c2ccccc2\4)cc1 (centres undefined)

emission maximum (in ClCCl): 406 nm
Structure (SMILES): CCOC(=O)c1c(-c2c(Cl)c3ccccc3oc2=O)nn(-c2ccccc2)c1C(=O)OCC

emission maximum (in ClCCl): 627 nm
Structure (SMILES): CC(C)[Si](C#Cc1c2nc3ccccc3nc2c(C#C[Si](C(C)C)(C(C)C)C(C)C)c2nc3c4ccccc4c(=O)c4ccccc4c3nc12)(C(C)C)C(C)C

emission maximum (in CC#N): 491 nm
Structure (SMILES): C(=C\c1nc(-c2ccccc2)c2ccccn12)/c1nc(-c2ccccc2)c2ccccn12

emission maximum (in C1CCOC1): 385 nm
Structure (SMILES): c1ccc2c(c1)Cc1c-2sc2c1Cc1ccccc1-2

Second part, the molecule before the results:

Structure (SMILES): CC(C)c1cc(C(C)C)c(B2c3cc(-n4c5ccccc5c5ccccc54)ccc3N(c3ccccc3)c3ccc(-n4c5ccccc5c5ccccc54)cc32)c(C(C)C)c1
emission maximum (in C1CCOC1): 442.52 nm | emission maximum (in CCOC(C)=O): 442.52 nm | emission maximum (in Cc1ccccc1): 442.52 nm | emission maximum (in ClCCl): 442.52 nm | emission maximum (in c1cc(-c2cccc(-n3c4ccccc4c4ccccc43)c2)cc(-n2c3ccccc3c3ccccc32)c1): 452 nm

Structure (SMILES): COC(=O)C(CCCCNC(=O)CCNc1cccc2ccccc12)NC(C)=O (centres undefined)
emission maximum (in CCO): 417 nm

Structure (SMILES): Cc1ccc2nc3[nH]c(=O)[nH]c(=O)c3nc2c1C
emission maximum (in CC#N): 469 nm

Structure (SMILES): N#CC(C#N)=Cc1ccc2c(c1)[nH]c1c3ccccc3sc21
emission maximum (in C1CCOC1): 547 nm | emission maximum (in CN(C)C=O): 581 nm | emission maximum (in Cc1ccccc1): 518 nm | emission maximum (in ClCCl): 544 nm

Structure (SMILES): CCN(CC)c1ccc2c(C)cc(=O)oc2c1
emission maximum (in C1CCCCC1): 395 nm | emission maximum (in CC#N): 430 nm | emission maximum (in CCCCCCCCO): 443 nm | emission maximum (in CCCCCCO): 444 nm | emission maximum (in CCCCO): 447 nm | emission maximum (in CCCO): 452 nm | emission maximum (in CCO): 454 nm and 451 nm | emission maximum (in CCOC(C)=O): 416 nm | emission maximum (in CO): 462 nm | emission maximum (in O): 470 nm | emission maximum (in OCC(O)CO): 463 nm

Structure (SMILES): O=S1(=O)c2ccc(-c3ccc(N(c4ccccc4)c4ccccc4)cc3)cc2C2(c3ccccc3-c3ccccc32)c2cc(-c3ccc(N(c4ccccc4)c4ccccc4)cc3)ccc21
emission maximum (in CC(C)=O): 477.11 nm | emission maximum (in CCCCCC): 398.37 nm | emission maximum (in CN(C)C=O): 491.2 nm | emission maximum (in Cc1ccccc1): 425.46 nm | emission maximum (in ClCCl): 465 nm

Structure (SMILES): CC1(C)c2ccccc2N(c2cc[n+]3c(c2)-c2ccccc2O[B-]3(F)F)c2ccccc21
emission maximum (in Cc1ccccc1): 540 nm | emission maximum (in O=P(c1ccccc1)(c1ccccc1)c1ccccc1Oc1ccccc1P(=O)(c1ccccc1)c1ccccc1): 542 nm

Structure (SMILES): CCCCCCCCCCCCCCn1c(-c2cc(-c3nc4ccc(C)cc4n3CCCCCCCCCCCCCC)cc(-c3nc4ccc(C)cc4n3CCCCCCCCCCCCCC)c2)nc2ccc(C)cc21
emission maximum (in C1CCOC1): 368.6 nm

Structure (SMILES): CCCCC1(CCCC)c2cc(/C=C/c3ccc(N(c4ccccc4)c4ccccc4)cc3)ccc2-c2cc3c(cc21)-c1ccc(/C=C/c2ccc(N(c4ccccc4)c4ccccc4)cc2)cc1C3(CCCC)CCCC
emission maximum (in Cc1ccccc1): 450 nm

Structure (SMILES): CC(C)c1cc(C(C)C)c(B2c3ccccc3Oc3cc(N4c5ccccc5C(C)(C)c5ccccc54)ccc32)c(C(C)C)c1
emission maximum (in Cc1ccccc1): 475 nm

Structure (SMILES): c1ccc(N(c2ccccc2)c2ccc(-c3ccc4c(c3)C3(c5cc(-c6ccc(N(c7ccccc7)c7ccccc7)cc6)ccc5S4)c4ccccc4-c4ccccc43)cc2)cc1
emission maximum (in CC(C)=O): 414.99 nm | emission maximum (in CCCCCC): 392.96 nm | emission maximum (in CN(C)C=O): 421.13 nm | emission maximum (in Cc1ccccc1): 398.74 nm | emission maximum (in ClCCl): 410 nm

Structure (SMILES): N#Cc1nc(N(Cc2ccc(Cl)cc2)Cc2ccc(Cl)cc2)c(C#N)nc1N(Cc1ccc(Cl)cc1)Cc1ccc(Cl)cc1
emission maximum (in ClC(Cl)Cl): 577 nm

Structure (SMILES): CCc1c(C)c2n(c1C)[B-](F)(F)[N+]1=C(c3ccc[nH]3)c3ccccc3C1=C2
emission maximum (in C1CCOC1): 631 nm | emission maximum (in CC#N): 628 nm | emission maximum (in CCCCCC): 626 nm | emission maximum (in CO): 628 nm | emission maximum (in Cc1ccccc1): 635 nm | emission maximum (in ClCCl): 634 nm

Structure (SMILES): [O-][n+]1c(/C=C/C=C/c2ccccc2)nc(N2CCOCC2)c2c1CCCC2
emission maximum (in ClCCl): 546 nm

Structure (SMILES): CC1(C)c2ccccc2N(c2ccc3c(ccc4nc5ccc6cc(N7c8ccccc8C(C)(C)c8ccccc87)ccc6c5nc43)c2)c2ccccc21
emission maximum (in C1CCCCC1): 484 nm | emission maximum (in C1CCOC1): 661 nm | emission maximum (in Cc1ccccc1): 552 nm | emission maximum (in ClCCl): 699 nm

Structure (SMILES): Cc1ccccc1N(c1ccc(C(C)(C)C)cc1)c1ccc2ccc3c(N(c4ccc(C(C)(C)C)cc4)c4ccccc4C)ccc4ccc1c2c43
emission maximum (in Cc1ccccc1): 462 nm

Structure (SMILES): CC1=CC(C)(C)N(C)c2cc3c(cc21)C(c1ccc(Br)cc1)=c1cc2c(cc1O3)=[N+](C)C(C)(C)C=C2C
emission maximum (in CCO): 616 nm

Structure (SMILES): COc1ccc(OC)cc1
emission maximum (in C1CCCCC1): 323.21 nm

Structure (SMILES): COC(=O)c1ccc(C#Cc2ccc(N(C)C)cc2)cc1
emission maximum (in C1CCCCC1): 426 nm | emission maximum (in C1CCOC1): 482 nm | emission maximum (in C1COCCO1): 450 nm | emission maximum (in CC1CCCO1): 464.51 nm | emission maximum (in CC#N): 544.01 nm | emission maximum (in CC(C)=O): 426.99 nm | emission maximum (in CC(C)CC(C)(C)C): 377.5 nm | emission maximum (in CC(C)O): 441.5 nm | emission maximum (in CCCCCCCCCCCCCCCC): 370 nm | emission maximum (in CCCCCCCCCCCCCCCCCl): 382.5 nm | emission maximum (in CCOC(C)=O): 470.5 nm | emission maximum (in CCOCC): 458.51 nm | emission maximum (in CN(C)C=O): 524 nm | emission maximum (in CO): 465.01 nm | emission maximum (in CS(C)=O): 548.49 nm | emission maximum (in Cc1ccccc1): 381 nm

Structure (SMILES): CN(C)c1ccc(/C=C/c2nc(/C=C/c3ccc(N(c4ccccc4)c4ccccc4)cc3)cc(/C=C/c3ccc(N(c4ccccc4)c4ccccc4)cc3)n2)cc1
emission maximum (in C1CCOC1): 512 nm | emission maximum (in CC#N): 574 nm | emission maximum (in CC(C)=O): 552 nm | emission maximum (in CCCCCCC): 460 nm | emission maximum (in CS(C)=O): 577 nm | emission maximum (in Cc1ccccc1): 495 nm | emission maximum (in ClCCl): 577 nm

Structure (SMILES): Cc1cccc2nc3c(=O)[nH]c(=O)[nH]c3nc12
emission maximum (in C1COCCO1): 437 nm | emission maximum (in CC#N): 449 nm | emission maximum (in CCO): 465 nm | emission maximum (in CO): 469 nm | emission maximum (in ClCCCl): 450 nm | emission maximum (in O): 495 nm

Structure (SMILES): Oc1ccccc1-c1nc2c3cccnc3c3ncccc3c2n1-c1ccccc1
emission maximum (in Cc1ccccc1): 379 nm

Structure (SMILES): CC(C)(C)c1ccc2c(c1)c1cc(C(C)(C)C)ccc1n2-c1ccc(-n2c3ccc(C(C)(C)C)cc3c3cc(C(C)(C)C)ccc32)c(C(=O)c2ccncc2)c1
emission maximum (in C1CCOC1): 519.49 nm | emission maximum (in CCCCCC): 476.84 nm | emission maximum (in Cc1ccccc1): 508 nm | emission maximum (in ClCCl): 561.4 nm

Structure (SMILES): COCCC1=Cc2nc1ccc1[nH]c(cc1CCOC)c1nc(c(N)cc3[nH]c2cc3CCOC)C(CCOC)=C1
emission maximum (in Cc1ccccc1): 748 nm

Structure (SMILES): C#CCOc1ccc(C2=[N+]3C(=Nc4c(-c5ccccc5)cc(-c5ccc(O)cc5)n4[B-]3(F)F)C(c3ccccc3)=C2)cc1
emission maximum (in CO): 716 nm | emission maximum (in Cc1ccccc1): 711 nm | emission maximum (in ClC(Cl)Cl): 708 nm
